Patent publication US20210038559A1, “CANNABINOIDS AND DERIVATIVES FOR PROMOTING IMMUNOGENICITY OF TUMOR AND INFECTED CELLS” (priority 2018, published 2021)
Like-named read-outs stand apart in the source and are kept apart here.

Test system: MHC-I expression by COLO 205 cells
Experiment: cells
Assay type: cell-based, human
Conditions: for fold induction at 35 µM: Homo sapiens, COLO 205, 48 h, read-out: Induction Fold
Experimental: A panel of synthetic cannabinoids (Cayman Chemical, #9002891) was tested for MHC class I-inducing capability in COLO 205 cells as described above. COLO 205 cells were treated with the compounds at a concentration of 35 μM and evaluated for cell surface MHC class I expression after 48 hours. Cells were harvested, stained with MHC-I mAb W6/32 (Thermo Fisher). MHC-I expression was determined by flow cytometry.

[1] = MHC-I expression, COLO 205 cells, compounds at 35 μM, 48 hours, flow cytometry (W6/32)

| Structure (SMILES) | fold induction at 35 µM [1] | further results |
| --- | --- | --- |
| COC(=O)[C@@H](NC(=O)c1cn(CC2CCCCC2)c2ccccc12)C(C)(C)C [Example 31, N-[[1-(cyclohexylmethyl)-1H-indol-3-yl]carbonyl]-3-methyl-1-valine, methyl ester] | – | Induction Fold [1]: 3.35 Fold |
| CCCCCn1cc(C(=O)c2ccccc2I)c2ccccc21 [Example 36, (2-iodophenyl)(1-pentyl-1H-indol-3-yl)-methanone] | 3.3 | – |
| CCC(Cl)CCn1cc(C(=O)C2C(C)(C)C2(C)C)c2ccccc21 (stereo not shown) [Example 37] | 3.3 | – |
| O=C(Oc1cccc2cccnc12)c1cn(CC2CCCCC2)c2ccccc12 [Example 38, 1-(cyclohexylmethyl)-8-quinolinyl ester-1H-indole-3-carboxylic acid] | – | Induction Fold: 3.15 Fold |
| CCCCCCC(C)(C)c1ccc([C@@H]2CCC[C@H](O)C2)c(O)c1 [Example 39, 2[(1R,3S)-3-hydroxycyclohexyl]-5-(2-methyloctan-2-yl)phenol] | 3.14 | – |
| O=C(c1cccc2ccccc12)c1nc2ccccc2n1CCCCCF [Example 40, (1-(5-fluoropentyl)-1H-benzo[d]imidazol-2-yl)(naphthalen-1-yl)methanone] | 3.14 | – |
| CC(C)Cn1cc(C(=O)c2cccc3ccccc23)c2ccccc21 [Example 41, (1-isobutyl-1H-indol-3-yl)(naphthalen-1-yl)methanone] | 3.11 | – |
| COc1cccc(CC(=O)c2cn(CCC3CCCCC3)c3ccccc23)c1 [Example 42, 1-(1-(2-cyclohexylethyl)-1H-indol-3-yl)-2-(3-methoxyphenyl)ethanone] | 3.07 | – |
| COc1cccc2c(C(=O)N[C@@H]3C(C)(C)[C@@H]4CC[C@@]3(C)C4)cn(CCN3CCOCC3)c12 [Example 43, 7-methoxy-1-[2-(4-morpholinyl)ethyl]-N-[(1S,2 S,4R)-1,3,3-trimethylbicyclo[2.2.1]hept-2-yl]-1H-indole-3-carboxamide] | 3.06 | – |
| COc1ccc(CC(=O)c2cn(CCC3CCCCC3)c3ccccc23)cc1 [Example 44, 1-(1-(2-cyclohexylethyl)-1H-indol-3-yl)-2-(4-methoxyphenyl)ethanone] | 3.03 | – |
| CCC(F)CCn1cc(C(=O)Oc2cccc3cccnc23)c2ccccc21 (stereo not shown) [Example 45, quinolin-8-yl 1-(3-fluoropentyl)-1H-indole-3-carboxylate] | 3.02 | – |
| COC(=O)[C@@H](NC(=O)c1nn(Cc2ccc(F)cc2)c2ccccc12)C(C)(C)C [Example 46, N-[[1-[(4-fluorophenyl)methyl]-1H-indazol-3-yl]carbonyl]-3-methyl-1-valine, methyl ester] | – | Induction Fold [1]: 3.02 Fold |
| O=C(Oc1ccc2cccnc2c1)c1cn(CC2CCCCC2)c2ccccc12 [Example 47, quinolin-7-yl 1-(cyclohexylmethyl)-1H-indole-3-carboxylate] | 3.01 | – |
| CCC(CC)n1cc(C(=O)c2cccc3ccccc23)c2ccccc21 [Example 48, naphthalen-1-yl(1-(pentan-3-yl)-1H-indol-3-yl)methanone] | 3 | – |
| CC(C)(C)Cn1cc(C(=O)c2cccc3ccccc23)c2ccccc21 [Example 49, naphthalen-1-yl(1-neopentyl-1H-indol-3-yl)-methanone] | 3 | – |
| CCCCCn1cc(C(=O)c2cccc3cccc(Cl)c23)c2ccccc21 [Example 50, (8-chloronaphthalen-1-yl)(1-pentyl-1H-indol-3-yl)methanone] | 3 | – |
| CC1(C)C(C(=O)c2cn(CCCCCF)c3ccccc23)C1(C)C [Example 51, (1-(5-fluoropentyl)-1H-indol-3-yl)(2,2,3,3-tetramethylcyclopropyl)methanone] | 2.99 | – |
| CCCCCn1cc(C(=O)Oc2cncc3ccccc23)c2ccccc21 [Example 52, isoquinolin-4-yl 1-pentyl-1H-indole-3-carboxylate] | 2.98 | – |
| CCCCCn1cc(C(=O)Oc2ccc3cnccc3c2)c2ccccc21 [Example 53, isoquinolin-6-yl 1-pentyl-1H-indole-3-carboxylate] | 2.97 | – |
| O=C(c1ccccc1I)c1cn(CCCCCF)c2ccccc12 [Example 54, [1-(5-fluoropentyl)-1H-indol-3-yl](2-iodophenyl)-methanone] | 2.93 | – |
| N#CCCCCn1cc(C(=O)c2cccc3ccccc23)c2ccccc21 [Example 55, 3-(1-naphthalenylcarbonyl)-1H-Indole-1-pentanenitrile] | 2.92 | – |
| CCCCCn1cc(C(=O)c2cccc(OC)c2)c2ccccc21 [Example 56, (3-methoxyphenyl)(1-pentyl-1H-indol-3-yl)methanone] | 2.9 | – |
| O=C(c1cccc2ccccc12)c1cn(CCN2CCOCC2)c2ccccc12 [Example 57, [1-[2-(4-morpholinyl)ethyl]-1H-indol-3-yl]-1-naphthalenyl-methanone] | – | Induction Fold: 2.89 Fold |

| Structure (SMILES) | fold induction at 35 µM [1] | further results |
| --- | --- | --- |
| CCC(C)Cn1cc(C(=O)c2cccc3ccccc23)c2ccccc21 (stereo not shown) [Example 58, N-(2-methylbutyl)-3-(1-naphthoyl)-indole] | 2.86 | – |
| CCCCCn1cc(C(=O)Cc2ccc(OC)cc2)c2ccccc21 [Example 59, 2-(4-methoxyphenyl)-1-(1-pentyl-1H-indol-3-yl)-ethanone] | 2.85 | – |
| CCCCCn1cc(C(=O)c2cccc3ccccc23)cc1-c1ccccc1C [Example 60, [5-(2-methylphenyl)-1-pentyl-1H-pyrrol-3-yl]-1-naphthalenyl-methanone] | – | Induction Fold: 2.85 Fold |
| CCCCCCC(C)(C)C1=CC(=O)C([C@H]2CCC[C@@H](O)C2)=CC1=O [Example 61, 3′R-hydroxy-4-(2-methyloctan-2-yl)-[1,1′S-bi(cyclohexane)]-3,6-diene-2,5-dione] | – | Induction Fold [1]: 2.85 Fold |
| CC1(C)C(C(=O)c2cn(Cc3ccc(F)cc3)c3ccccc23)C1(C)C [Example 62, (1-(4-fluorobenzyl)-1H-indol-3-yl)(2,2,3,3-tetramethylcyclopropyl)methanone] | 2.79 | – |
| CCCCCn1cc(C(=O)Cc2ccc(Cl)cc2)c2ccccc21 [Example 64, 2-(4-chlorophenyl)-1-(1-pentyl-1H-indol-3-yl)-ethanone] | 2.77 | – |
| CCCn1cc(C(=O)c2cccc3ccccc23)c2ccccc21 [Example 65, 1-naphthalenyl(1-propyl-1H-indol-3-yl)-methanone] | – | Induction Fold: 2.77 Fold |
| CCCCCn1ccc(C(=O)c2cccc3ccccc23)c1 [Example 66, 1-naphthalenyl(1-pentyl-1H-pyrrol-3-yl)-methanone] | – | Induction Fold: 2.75 Fold |
| CC(C)[C@H](NC(=O)c1nn(CC2CCCCC2)c2ccccc12)C(N)=O [Example 67, N-[(1S)-1-(aminocarbonyl)-2-methylpropyl]-1-(cyclohexylmethyl)-1H-indazole-3-carboxamide] | 2.75 | – |
| CN1CCCCC1Cn1cc(C(=O)C23CC4CC(CC(C4)C2)C3)c2ccccc21 (stereo not shown) [Example 68, [1-[(1-methyl-2-piperidinyl)methyl]-1H-indol-3-yl]tricyclo[3.3.1.13,7]dec-1-yl-methanone] | 2.72 | – |
| CCCCn1cc(C(=O)c2ccc(C)c3ccccc23)c2ccccc21 [Example 69, (1-butyl-1H-indol-3-yl)(4-methylnaphthalen-1-yl)methanone] | 2.71 | – |
| CC(C)C(C)n1cc(C(=O)c2cccc3ccccc23)c2ccccc21 (stereo not shown) [Example 70, (1-(3-methylbutan-2-yl)-1H-indol-3-yl)(naphthalen-1-yl)methanone] | 2.7 | – |
| CCCCCn1cc(C(=O)c2cccc3ccccc23)c2ccccc21 [Example 71, (1-pentyl-1H-indol-3-yl)-1-naphthalenyl-methanone] | – | Induction Fold [1]: 2.69 Fold |
| COc1ccccc1CC(=O)c1cn(CCC2CCCCC2)c2ccccc12 [Example 74, 1-(1-(2-cyclohexylethyl)-1H-indol-3-yl)-2-(2-methoxyphenyl)ethanone] | 2.65 | – |
| CCCCCn1cc(C(=O)c2c(Cl)ccc3ccccc23)c2ccccc21 [Example 75, (2-chloronaphthalen-1-yl)(1-pentyl-1H-indol-3-yl)methanone] | 2.65 | – |
| CCCCCn1nc(C(=O)NC(C(N)=O)C(C)(C)C)c2ccccc21 (stereo not shown) [Example 76, N-[1-(aminocarbonyl)-2,2-dimethylpropyl]-1-pentyl-1H-indazole-3-carboxamide] | 2.61 | – |
| CCCCCn1cc(C(=O)c2cccc3ccccc23)cc1-c1ccccc1 [Example 77, 1-naphthalenyl(1-pentyl-5-phenyl-1H-pyrrol-3-yl)-methanone] | – | Induction Fold: 2.60 Fold |
| CCCc1ccc(C(=O)c2cn(CCC)c3ccccc23)c2ccccc12 [Example 78, (1-propyl-1H-indol-3-yl)(4-propyl-1-naphthalenyl)-methanone] | 2.58 | – |
| O=C(c1cccc2ccccc12)c1cn(CCCCCF)c2ccccc12 [Example 79, [1-(5-fluoropentyl)-1H-indol-3-yl]-1-naphthalenyl-methanone] | – | Induction Fold [1]: 2.57 Fold |
| CCCCCn1cc(C(=O)Cc2ccccc2)c2ccccc21 [Example 80, 1-(1-pentyl-1H-indol-3-yl)-2-phenyl-ethanone] | 2.57 | – |
| CCCCCn1cc(C(=O)c2cccc3cccc(C)c23)c2ccccc21 [Example 81, (8-methylnaphthalen-1-yl)(1-pentyl-1H-indol-3-yl)methanone] | 2.57 | – |
| CCCC(F)Cn1cc(C(=O)Oc2cccc3cccnc23)c2ccccc21 (stereo not shown) [Example 83, quinolin-8-yl 1-(2-fluoropentyl)-1H-indole-3-carboxylate] | 2.54 | – |
| COC(=O)[C@@H](NC(=O)c1nn(CCCC(C)F)c2ccccc12)C(C)(C)C (stereo partly drawn) [Example 84, methyl (2S)-2-(1-(4-fluoropentyl)-1H-indazole-3-carboxamido)-3,3-dimethylbutanoate] | 2.53 | – |
